Measurements from USRE48461E1, “Modulation of androgen receptor expression” (Ionis Pharmaceuticals, Inc., priority 2012, dated 2021).

Experiments:
Assay type in all cases: cell-based, human
AR mRNA = assay: AR RNA expression in LNCaP cells (complete, CSS, CSS+DHT medium); conditions: for Percent expression of AR in LNCaP cells cultured in CSS + DHT medium: CSS + DHT (1 nM) medium; for Percent expression of AR in LNCaP cells cultured in CSS + DHT medium / Percent expression of AR in LNCaP cells cultured in CSS medium: 48 hrs; for Percent expression of AR in LNCaP cells cultured in complete medium: 48 hours
Protocol: Cells were plated at 1,000 cells per well. […] After an incubation period of 48 hours, RNA levels of AR, PSA and TMPRSS2 were measured.
(§1) Cells were plated at 2,000 cells per well and cultured in phenol red-free RPMI supplemented with 5% charcoal stripped serum (Gibco) media for 16 hours. […] After an incubation period of 4 hrs, DHT was added to the medium to a final concentration of 1 nM as indicated. RNAs were collected 48 hrs later and levels of AR, PSA and TMPRSS2 were measured.

PSA mRNA [1] = assay: PSA expression in LNCaP cells (complete, CSS+DHT medium); conditions: for Percent inhibition of PSA expression in LNCaP cells cultured in CSS + DHT medium: CSS + DHT (1 nM) medium, 48 hrs; for Percent inhibition of PSA expression in LNCaP cells cultured in complete medium: 48 hours
Protocol: Cells were plated at 1,000 cells per well. […] ISIS 549148 was included as a negative control. […] After an incubation period of 48 hours, RNA levels of AR, PSA and TMPRSS2 were measured.
as §1, with “hours. […] ISIS 549148 was included as a negative control.” for “hours.”, “measured. In the absence of DHT, AR expression in LNCaP cells was 95%, PSA expression was 7% and TMPRSS2 expression was 24% compared to the untreated control.” for “measured.”

PSA mRNA [2] = assay: PSA expression in C4-2 cells; conditions: 48 hrs; for Percent inhibition of PSA expression: C4-2 cells, CSS + DHT medium
Protocol: Cells were plated at 1,000 cells per well. […] After an incubation period of 48 hrs, RNA levels of AR, PSA and TMPRSS2 were measured.
Cells were plated at 2,000 cells per well and cultured in CSS media with 1 nM DHT. […] After an incubation period of 48 hrs, RNA levels of AR, PSA and TMPRSS2 were measured.

C4-2 cells = assay: C4-2 cell proliferation (complete or CSS+DHT medium); conditions: 5 days; for Proliferation (% untreated control): C4-2 cells
Protocol: After a treatment period of 5 days in complete medium or CSS+1 nM DHT medium, the proliferative capacity of the cancer cells was measured with using CellTiter 96® AQueous One Solution or CellTiter-Glo® Cell Proliferation kit (Promega), following the manufacturer's instructions. […] The proliferative capacity of cells cultured in CSS medium without DHT is 17% of untreated control levels.

TMPRSS2 mRNA = assay: TMPRSS2 expression in VCaP cells; conditions: RNAiMax, 48 hrs
Protocol: Cells were plated at 10,000 cells per well. […] After an incubation period of 48 hrs, RNA levels of full length AR, the V7 variant, PSA and TMPRSS2 were measured.
After an incubation period of 48 hrs, RNA levels of full length AR, the V7 variant, PSA and TMPRSS2 were measured. The data is presented in Tables 108 expressed as percent expression of gene levels compared to the untreated control.
Cells were plated at 15,000 cells per well and cultured in CSS media for 16 hours. […] After 4 hrs, 1 nM DHT was added. […] After an incubation period of 48 hrs, RNA levels of AR, PSA and TMPRSS2 were measured.

AR V7 variant mRNA = assay: AR V7 variant RNA in 22RV1 cells; conditions: RNAiMax, 48 hrs
PSA mRNA [3] = assay: PSA expression in 22RV1 cells; conditions: RNAiMax, 48 hrs
Protocol: Cells were plated at 1,000 cells per well. […] After an incubation period of 48 hrs, RNA levels of full length AR, the V7 variant, PSA and TMPRSS2 were measured.
After an incubation period of 48 hrs, RNA levels of full length AR, the V7 variant, PSA and TMPRSS2 were measured.
Cells were plated at 2,000 cells per well and cultured in CSS media for 16 hours. […] After 4 hrs, 1 nM DHT was added. […] After an incubation period of 48 hrs, RNA levels of AR, AR V7 variant, PSA and TMPRSS2 were measured.

22RV1 cells = assay: 22RV1 apoptosis (Caspase-glo 3/7); conditions: 72 hours; for Apoptosis (% untreated control): 22RV1 cells
Protocol: After a treatment period of 72 hours in complete medium or CSS+DHT medium, apoptosis of the cancer cells was measured with Caspase-glo 3/7 assay kit (Promega). Results are presented in Tables 131 and 132 as percent apoptosis of the cells, relative to non-treated cells.

TTGATTTAATGGTTGC [ISIS 560131] (MOE and (S)-cEt gapmer chemistry, further chemistry not given here) [targets intron 1]
Percent expression of AR in LNCaP cells cultured in CSS + DHT medium (AR mRNA; 0.04 μM): 101% | Percent expression of AR in LNCaP cells cultured in CSS + DHT medium (AR mRNA; 0.2 μM): 71% | Percent expression of AR in LNCaP cells cultured in CSS + DHT medium (AR mRNA; 1 μM): 27% | Percent expression of AR in LNCaP cells cultured in CSS + DHT medium (AR mRNA; 5.0 μM): 10% | Percent expression of AR in LNCaP cells cultured in CSS medium (AR mRNA; 0.04 μM): 81% | Percent expression of AR in LNCaP cells cultured in CSS medium (AR mRNA; 0.2 μM): 46% | Percent expression of AR in LNCaP cells cultured in CSS medium (AR mRNA; 1 μM): 16% | Percent expression of AR in LNCaP cells cultured in CSS medium (AR mRNA; 5.0 μM): 5% | Percent expression of AR in LNCaP cells cultured in complete medium (AR mRNA; 0.04 μM): 101% | Percent expression of AR in LNCaP cells cultured in complete medium (AR mRNA; 0.2 μM): 53% | Percent expression of AR in LNCaP cells cultured in complete medium (AR mRNA; 1 μM): 17% | Percent expression of AR in LNCaP cells cultured in complete medium (AR mRNA; 5.0 μM): 7% | Percent inhibition of PSA expression in LNCaP cells cultured in CSS + DHT medium (PSA mRNA [1]; 0.04 μM): 10% | Percent inhibition of PSA expression in LNCaP cells cultured in CSS + DHT medium (PSA mRNA [1]; 0.2 μM): 21% | Percent inhibition of PSA expression in LNCaP cells cultured in CSS + DHT medium (PSA mRNA [1]; 1 μM): 21% | Percent inhibition of PSA expression in LNCaP cells cultured in CSS + DHT medium (PSA mRNA [1]; 5.0 μM): 72% | Percent inhibition of PSA expression in LNCaP cells cultured in complete medium (PSA mRNA [1]; 0.04 μM): 0% | Percent inhibition of PSA expression in LNCaP cells cultured in complete medium (PSA mRNA [1]; 0.2 μM): 60% | Percent inhibition of PSA expression in LNCaP cells cultured in complete medium (PSA mRNA [1]; 1 μM): 87% | Percent inhibition of PSA expression in LNCaP cells cultured in complete medium (PSA mRNA [1]; 5.0 μM): 90% | Percent inhibition of PSA expression (PSA mRNA [2]; 0.04 μM): 10% | Percent inhibition of PSA expression (PSA mRNA [2]; 0.2 μM): 24% | Percent inhibition of PSA expression (PSA mRNA [2]; 1 μM): 49% | Percent inhibition of PSA expression (PSA mRNA [2]; 5.0 μM): 74% | Percent inhibition of PSA expression in C4-2 cells cultured in complete medium (PSA mRNA [2]; 0.04 μM): 48% | Percent inhibition of PSA expression in C4-2 cells cultured in complete medium (PSA mRNA [2]; 0.2 μM): 78% | Percent inhibition of PSA expression in C4-2 cells cultured in complete medium (PSA mRNA [2]; 1 μM): 88% | Percent inhibition of PSA expression in C4-2 cells cultured in complete medium (PSA mRNA [2]; 5.0 μM): 89% | Proliferation (% untreated control) (C4-2 cells; CSS + DHT medium, 0.04 μM): 106 % untreated control | Proliferation (% untreated control) (C4-2 cells; CSS + DHT medium, 0.2 μM): 94 % untreated control | Proliferation (% untreated control) (C4-2 cells; CSS + DHT medium, 1 μM): 47 % untreated control | Proliferation (% untreated control) (C4-2 cells; CSS + DHT medium, 5.0 μM): 31 % untreated control | Proliferation (% untreated control) (C4-2 cells; complete medium, 0.04 μM): 104 % untreated control | Proliferation (% untreated control) (C4-2 cells; complete medium, 0.2 μM): 82 % untreated control | Proliferation (% untreated control) (C4-2 cells; complete medium, 1 μM): 70 % untreated control | Proliferation (% untreated control) (C4-2 cells; complete medium, 5.0 μM): 51 % untreated control | proliferation of C4-2 cells (C4-2 cells; complete medium or CSS+1 nM DHT): reduced proliferation of the cells in a dose dependent manner compared to the control | Percent inhibition of TMPRSS2 expression (TMPRSS2 mRNA; CSS + DHT medium, 1.34 nM): 0% | Percent inhibition of TMPRSS2 expression (TMPRSS2 mRNA; CSS + DHT medium, 4.0 nM): 21% | Percent inhibition of TMPRSS2 expression (TMPRSS2 mRNA; CSS + DHT medium, 13.4 nM): 49% | Percent inhibition of TMPRSS2 expression (TMPRSS2 mRNA; CSS + DHT medium, 40 nM): 57% | Percent inhibition of TMPRSS2 expression (TMPRSS2 mRNA; complete medium, 1.34 nM): 0% | Percent inhibition of TMPRSS2 expression (TMPRSS2 mRNA; complete medium, 4.0 nM): 0% | Percent inhibition of TMPRSS2 expression (TMPRSS2 mRNA; complete medium, 13.4 nM): 0% | Percent inhibition of TMPRSS2 expression (TMPRSS2 mRNA; complete medium, 40 nM): 4% | Percent inhibition of AR V7 variant (AR V7 variant mRNA; CSS + DHT medium, 1.34 nM): 63% | Percent inhibition of AR V7 variant (AR V7 variant mRNA; CSS + DHT medium, 4.0 nM): 83% | Percent inhibition of AR V7 variant (AR V7 variant mRNA; CSS + DHT medium, 13.4 nM): 93% | Percent inhibition of AR V7 variant (AR V7 variant mRNA; complete medium, 1.34 nM): 12% | Percent inhibition of AR V7 variant (AR V7 variant mRNA; complete medium, 4.0 nM): 29% | Percent inhibition of AR V7 variant (AR V7 variant mRNA; complete medium, 13.4 nM): 57% | Percent inhibition of AR V7 variant (AR V7 variant mRNA; complete medium, 40 nM): 81% | Percent inhibition of PSA expression (PSA mRNA [3]; CSS + DHT medium, 1.34 nM): 3% | Percent inhibition of PSA expression (PSA mRNA [3]; CSS + DHT medium, 4.0 nM): 50% | Percent inhibition of PSA expression (PSA mRNA [3]; CSS + DHT medium, 13.4 nM): 66% | Percent inhibition of PSA expression (PSA mRNA [3]; complete medium, 1.34 nM): 10% | Percent inhibition of PSA expression (PSA mRNA [3]; complete medium, 4.0 nM): 20% | Percent inhibition of PSA expression (PSA mRNA [3]; complete medium, 13.4 nM): 27% | Percent inhibition of PSA expression (PSA mRNA [3]; complete medium, 40 nM): 36% | Apoptosis (% untreated control) (22RV1 cells; CSS + DHT medium, 1.34 nM): 121 % untreated control | Apoptosis (% untreated control) (22RV1 cells; CSS + DHT medium, 4.0 nM): 113 % untreated control | Apoptosis (% untreated control) (22RV1 cells; CSS + DHT medium, 13.4 nM): 172 % untreated control | Apoptosis (% untreated control) (22RV1 cells; CSS + DHT medium, 40 nM): 518 % untreated control | Apoptosis (% untreated control) (22RV1 cells; complete medium, 1.34 nM): 99 % untreated control | Apoptosis (% untreated control) (22RV1 cells; complete medium, 4.0 nM): 127 % untreated control | Apoptosis (% untreated control) (22RV1 cells; complete medium, 13.4 nM): 131 % untreated control | Apoptosis (% untreated control) (22RV1 cells; complete medium, 40 nM): 566 % untreated control | apoptosis of 22RV1 cells (22RV1 cells; complete or CSS+DHT medium): increased apoptosis of the cells in a dose dependent compared to the control
